In US7459481B2, “Stimulation of CPT-1 as a means to reduce weight” (The Johns Hopkins University School of Medicine Licensing …, priority 2002, dated 2008):

Experiments:
[1] = tested on: MCF-7 cells; assay: Fatty acid oxidation ([1-14C]palmitate to 14CO2) in MCF-7 cells; format: cell-based, human
Experimental: (§1) Human breast cancer cell line MCF-7 was obtained from the American Type Culture Collection. 1×10^6 MCF-7 cells were plated in T-25 flasks in triplicate and incubated overnight at 37° C. Drugs were then added as indicated diluted from 5 mg/ml stock in DMSO. After 2 hours, medium with drugs was removed and cells were preincubated for 30 min. with 1.5 ml of the following buffer: 114 mM NaCl, 4.7 mM KCl, 1.2 mM KH2PO4, 1.2 mM MgSO4, glucose 11 mM. After preincubation, 200 μl of assay buffer was added containing: 114 mM NaCl, 4.7 mM KCl, 1.2 mM KH2PO4, 1.2 mM MgSO4, glucose 11 mM, 2.5 mM palmitate (containing with 10 μCi of [1-^14C]palmitate) bound to albumin, 0.8 mM L-carnitine, and cells were incubated at 37° C. for 2 h. Following the incubation, 400 μl of benzethonium hydrochloride was added to the center well to collect released ^14CO2. Immediately, the reaction was stopped by adding 500 μl of 7% perchloric acid to the cells. The flasks with wells were then incubated for 2 h at 37° C. after which the benzothonium hydrochloride was removed and counted for ^14C. Blanks were prepared by adding 500 μl of 7% perchloric acid to the cells prior to the incubation with the assay buffer for 2 h.
FAS activity was measured by monitoring the malonyl-CoA dependent oxidation of NADPH spectrophotometrically at OD340 in 96-well plates, as described in International Patent Publication WO 2004/005277. The IC50 for the compounds against FAS was determined by plotting the change in OD340 against time for each inhibitor concentration tested and determining the rate of change by linear regression. The concentration of a particular compound yielding 50% inhibition of the rate for FAS in the absence of the compound is the IC50. Stimulation of CPT-1 activity was measured as described in Example 2, except the cells were preincubated with the compound for 2 hours at the concentrations indicated in the table. Stimulation of Fatty acid oxidation was determined as described in Example 1 for cells preincubated with the compounds at the concentrations indicated in the table.

[2] = tested on: MCF-7 cells; assay: Total cellular ATP (luciferase assay) in MCF-7 cells; format: cell-based, human; details: MCF-7, 10 μg/ml and 20 μg/ml, 2 hours, FIG. 5
Experimental: 1×10^5 MCF-7 cells were plated in 96 well plates. Cells were treated with C75 or vehicle. After 2 hours, ATP was measured using a luciferase assay using the ATP Bioluminescence Kit CLS II (Roche) following the manufacturer's protocol. Plates were read by a Perkin Elmer Wallac Victor^2 1420 luminometer. […] Similar results were obtained after 1 hr incubation with C75. Thus, cellular energy production increased as a result of C75 increasing fatty acid oxidation.

[3] = tested on: 3T3-L1 adipocytes; assay: Fatty acid oxidation in differentiated 3T3-L1 adipocytes; format: cell-based, mouse; details: 20 μg/ml or greater, 2 hours, FIG. 6
Experimental: as §1, with “Following the incubation, 400 μl of benzethonium hydrochloride was added to the center well to collect released ^14CO2. Immediately, the reaction was stopped by adding 500 μl of 7% perchloric acid to the cells.” left out, “Blanks were prepared by adding 500 μl of 7% perchloric acid to the cells prior to the incubation with the assay buffer for 2 h.” left out
To expand the study of effects of C75 on fatty acid metabolism beyond cancer cell lines to normal adipocytes, differentiated (non-transformed) mouse NIH 3T3-L1 adipocytes were used in assays similar to those performed with the MCF-7 cells. […] The differentiated cells were ready to be used for experiments in 7-10 days.
C75 increased CPT-1 activity and fatty acid metabolism in the NIH 3T3-L1 cells differentiated into adipocytes. […] CPT-1 activity, fatty acid oxidation, and total cellular ATP were measured as described in Examples 2, 1, and 4. […]

[4] = Respiratory exchange ratio by indirect calorimetry (Oxymax) in mice; format: in vivo
Experimental: In keeping with the C75 effect on both human and murine CPT-1 and fatty acid metabolism, C75 induces a profound and rapid stimulation of fatty acid oxidation in vivo. Mice were maintained in the Oxymax calorimeter (Oxymax Equal Flow System®, Columbus Instruments, Columbus, Ohio). Oxygen consumption and CO2 production was measured in up to four mice simultaneously using the indirect calorimeter. Measurements were recorded every 15 minutes over the entire course of the experiments. The respiratory exchange ratio (RER) was calculated by the Oxymax® software version 5.9. RER is defined as the ratio of CO2 to O2 at any given time irrespective if equilibrium was reached. Mice were maintained on water and mouse chow ad libitum. In the control mice (FIG. 8A), note the diurnal variation of RER indicating feeding and resting cycles of the animals. An RER of 1 is consistent with oxidation of carbohydrates while 0.7 indicates oxidation of fatty acids. […] C75 treatment at 30 mg/kg disrupts the diurnal pattern of the control mice, showing a rapid drop in RER to complete oxidation of fatty acids within about 2 hours. […] Importantly, the rate of decline of RER was similar to that observed for animals deprived of food (data not shown).

[5] = tested on: MCF-7 cells; details: cited from earlier work

C=C1C(=O)OC(CCCCCCCC)C1C(=O)O (centres unmarked) [Compound C75]
Fatty Acid Oxidation (% Control) ([1]; 10 μg/mL): 400 % Control
effect on fatty acid oxidation ([1]; MCF-7, doses from 5-20 μg/ml): increased fatty acid oxidation
increase in fatty acid oxidation compared to the control ([1]; MCF-7, treated 2 hours before measurement, FIG. 1): 156%
total cellular ATP [2]: significant increase
fatty acid oxidation [3]: significantly increased
time for RER drop to oxidation of fatty acids ([4]; 30 mg/kg): ≤ 2 h
respiratory exchange ratio (RER) after treatment ([4]; FIG. 8B): ~0.7
increase in malonyl-CoA [5]: > 5 fold
